Experimental data taken from the NIST ThermoML archive (doi:10.1016/j.jct.2003.11.001).

Test: mn = molality of the nth substance listed, in mol/kg
Conditions: 101.3 kPa, Liquid; for viscosity: Capillary tube (Ostwald / Ubbelohde) method

CCCCCC(=O)[O-].[Na+] [sodium hexanoate] + O
Conditions | mass density, m1 = 0.5 [kg/m3] | mass density, m1 = 1 [kg/m3] | mass density, m1 = 1.5 [kg/m3] | mass density, m1 = 2.177 [kg/m3] | viscosity, m1 = 0.5 [mPa·s] | viscosity, m1 = 1 [mPa·s] | viscosity, m1 = 1.5 [mPa·s] | viscosity, m1 = 2.177 [mPa·s]
298.15 K | 1014.4 | 1029.41 | 1041.88 | 1054.22 | 1.212 | 1.607 | 2.102 | 3.187
308.15 K | 1010.74 | 1024.96 | 1036.7 | 1048.72 | 0.956 | 1.24 | 1.601 | 2.402
